In ChEMBL document CHEMBL5523691, “SAR study of N'-(Salicylidene)heteroarenecarbohydrazides as promising antifungal agents” (Bioorg Med Chem, 2024):
In brackets after ≈: the same amount, converted by molar mass. Each block holds one molecule with its values, some of them ahead of it. Activity calls are given as the source filed them. The calls are words filed in the database; no cut-off is given here.

How the values were obtained:
[1] = Cytotoxicity against human A549 cells assessed as cell killing measured after 24 to 48 hrs by MTT assay; assay type: toxicity, cell-based; conditions: time 24-48 hrs, read-out: LD50 (the source's name)
Cryptococcus neoformans [2] = experiment: Antifungal activity against wild type Cryptococcus neoformans H99 assessed as inhibition of fungal growth incubated for 24 to 72 hrs by optical density based analysis; assay type: functional; conditions: time 24-72 hrs
[3] = Selectivity index, ratio of LD50 for human A549 cells to MIC80 for Cryptococcus neoformans H99; assay type: toxicity; conditions: read-out: Selectivity Index
Cryptococcus neoformans [4] = experiment: Fungicidal activity against wild type Cryptococcus neoformans H99 assessed as minimum concentration required to kill fungus measured after 24 hrs by time-kill assay; assay type: functional
Cryptococcus neoformans [5] = experiment: Fungicidal activity against wild type Cryptococcus neoformans H99 assessed as minimum concentration required to kill fungus measured after 12 hrs by time-kill assay; assay type: functional
Cryptococcus neoformans [6] = experiment: Fungistatic activity against wild type Cryptococcus neoformans H99 assessed as inhibition of fungal growth incubated for 12 to 48 hrs by time-kill assay; assay type: functional, organism-based; conditions: time 12-48 hrs
Cryptococcus neoformans [7] = experiment: Fungicidal activity against wild type Cryptococcus neoformans H99 assessed as minimum concentration required to kill fungus measured after 48 hrs by time-kill assay; assay type: functional
Cryptococcus neoformans [8] = experiment: Antifungal activity against wild type Cryptococcus neoformans H99 assessed as inhibition of fungal growth in presence of amphotericin B; assay type: functional
Aspergillus fumigatus = experiment: Antifungal activity against Aspergillus fumigatus assessed as inhibition of fungal growth incubated for 24 to 72 hrs by optical density based analysis; assay type: functional; conditions: time 24-72 hrs
Cryptococcus neoformans [9] = experiment: Synergistic antifungal activity against wild type Cryptococcus neoformans H99 assessed as fractional inhibitory concentration index in presence of amphotericin B; assay type: functional
Cryptococcus neoformans [10] = experiment: Antagonistic antifungal activity against wild type Cryptococcus neoformans H99 in presence of amphotericin B; assay type: functional, organism-based
Cryptococcus neoformans [11] = experiment: Antagonistic antifungal activity against wild type Cryptococcus neoformans H99 in presence of fluconazole; assay type: functional, organism-based
Candida albicans = experiment: Antifungal activity against Candida albicans assessed as inhibition of fungal growth incubated for 24 to 72 hrs by optical density based analysis; assay type: functional; conditions: time 24-72 hrs
Cryptococcus neoformans [12] = experiment: Synergistic antifungal activity against wild type Cryptococcus neoformans H99 assessed as fractional inhibitory concentration index in presence of caspofungin; assay type: functional
Cryptococcus neoformans [13] = experiment: Antagonistic antifungal activity against wild type Cryptococcus neoformans H99 in presence of caspofungin; assay type: functional, organism-based
Cryptococcus neoformans [14] = experiment: Antifungal activity against wild type Cryptococcus neoformans H99 assessed as inhibition of fungal growth in presence of fluconazole; assay type: functional
Cryptococcus neoformans [15] = experiment: Synergistic antifungal activity against wild type Cryptococcus neoformans H99 assessed as fractional inhibitory concentration index in presence of fluconazole; assay type: functional
Cryptococcus neoformans [16] = experiment: Antifungal activity against wild type Cryptococcus neoformans H99 assessed as inhibition of fungal growth in presence of caspofungin; assay type: functional

SMILES: O=C(N/N=C/c1cc(Br)ccc1O)c1ccc(C(F)(F)F)s1
CC50 [1]: 1 µg/mL (≈ 2.54 µM) | MIC80 (Cryptococcus neoformans [2]): 0.007 µg/mL (≈ 0.0178 µM) | selectivity ratio [3]: 143 | MFC100 (Cryptococcus neoformans [4]): 0.25 µg/mL (≈ 0.636 µM)

MIC80 (Cryptococcus neoformans [2]): > 16 µg/mL
SMILES: O=C(N/N=C/c1cc(Br)cc(Br)c1O)c1cc2cc(Br)ccc2o1

MIC80 (Cryptococcus neoformans [2]): 16 µg/mL (≈ 35.2 µM)
SMILES: O=C(N/N=C/c1c(O)ccc2ccccc12)c1cc(Br)c(Br)s1

SMILES: O=C(N/N=C/c1cc(Br)cc(Br)c1O)c1csc(Br)c1
CC50 [1]: 16 µg/mL (≈ 33.1 µM) | MIC80 (Cryptococcus neoformans [2]): 0.12 µg/mL (≈ 0.248 µM) | MFC100 (Cryptococcus neoformans [5]): 0.25 µg/mL (≈ 0.518 µM) | selectivity ratio [3]: 133

MIC80 (Cryptococcus neoformans [2]): 2 µg/mL (≈ 5.15 µM)
SMILES: O=C(N/N=C/c1cc(Br)cc(Br)c1O)c1ncc[nH]1

SMILES: O=C(N/N=C/c1ccc(Br)cc1O)c1csc(Br)c1
CC50 [1]: > 32 µg/mL | MIC80 (Cryptococcus neoformans [2]): 0.25 µg/mL (≈ 0.619 µM) | selectivity ratio [3]: > 128 | MFC100 (Cryptococcus neoformans [4]): 0.5 µg/mL (≈ 1.24 µM)

SMILES: O=C(N/N=C/c1cc(Br)cc(Br)c1O)c1ccc(Br)o1
CC50 [1]: 16 µg/mL (≈ 34.3 µM) | MIC80 (Cryptococcus neoformans [2]): 0.06 µg/mL (≈ 0.129 µM) | Activity (Cryptococcus neoformans [6]): Active | selectivity ratio [3]: 267

SMILES: O=C(N/N=C/c1cc(Br)ccc1O)c1cc(Br)c(Br)o1
CC50 [1]: 32 µg/mL (≈ 68.5 µM) | MFC100 (Cryptococcus neoformans [7]): 0.5 µg/mL (≈ 1.07 µM) | MIC80 (Cryptococcus neoformans [2]): 0.25 µg/mL (≈ 0.535 µM)

MIC80 (Cryptococcus neoformans [2]): > 16 µg/mL
SMILES: Cc1ccc2c(C)c(C(=O)N/N=C/c3cc(Br)ccc3O)oc2c1

MIC80 (Cryptococcus neoformans [2]): 4 µg/mL (≈ 8.59 µM)
SMILES: O=C(N/N=C/c1cc(Br)cc(Br)c1O)c1cc(Br)c[nH]1

MIC80 (Cryptococcus neoformans [2]): 8 µg/mL (≈ 20.7 µM)
SMILES: O=C(N/N=C/c1ccc(Br)cc1O)c1cc(Br)c[nH]1

MIC80 (Cryptococcus neoformans [2]): > 16 µg/mL
SMILES: O=C(N/N=C/c1c(O)ccc2ccccc12)c1cc(Br)co1

MIC80 (Cryptococcus neoformans [2]): 4 µg/mL (≈ 13 µM)
SMILES: O=C(N/N=C/c1cc(Br)ccc1O)c1cc[nH]c1

MIC80 (Cryptococcus neoformans [2]): 16 µg/mL (≈ 51.9 µM)
SMILES: O=C(N/N=C/c1cc(Br)ccc1O)c1ccc[nH]1

SMILES: O=C(N/N=C/c1ccc(Br)cc1O)c1cc(Br)c(Br)o1
CC50 [1]: 16 µg/mL (≈ 34.3 µM) | MIC80 (Cryptococcus neoformans [2]): 0.06 µg/mL (≈ 0.129 µM) | Activity (Cryptococcus neoformans [6]): Active | selectivity ratio [3]: 267

MIC80 (Cryptococcus neoformans [2]): 2 µg/mL (≈ 5.3 µM)
SMILES: O=C(N/N=C/c1cc(Br)ccc1O)c1ccc(C(F)(F)F)o1

SMILES: O=C(N/N=C/c1ccc(Br)cc1O)c1ccc(Br)o1
CC50 [1]: > 32 µg/mL | MIC80 (Cryptococcus neoformans [8]): 0.015 µg/mL | MIC80 (Aspergillus fumigatus): 0.5 µg/mL (≈ 1.29 µM) | MIC80 (Cryptococcus neoformans [2]): 0.12 µg/mL (≈ 0.309 µM) | fractional inhibitory concentration index (FICI) (Cryptococcus neoformans [9]): 0.53 | Activity (Cryptococcus neoformans [10]): inactive | Activity (Cryptococcus neoformans [11]): inactive | selectivity ratio [3]: > 533 | MIC80 (Candida albicans): 0.5 µg/mL (≈ 1.29 µM) | MFC100 (Cryptococcus neoformans [4]): 0.5 µg/mL (≈ 1.29 µM) | fractional inhibitory concentration index (FICI) (Cryptococcus neoformans [12]): 0.37 | Activity (Cryptococcus neoformans [13]): inactive | MIC80 (Cryptococcus neoformans [14]): 0.015 µg/mL | fractional inhibitory concentration index (FICI) (Cryptococcus neoformans [15]): 0.25 | MIC80 (Cryptococcus neoformans [16]): 0.015 µg/mL

MIC80 (Cryptococcus neoformans [2]): 2 µg/mL (≈ 5.17 µM)
SMILES: O=C(N/N=C/c1cc(Br)cc(Br)c1O)c1cc[nH]c1

MIC80 (Cryptococcus neoformans [2]): 4 µg/mL (≈ 10.3 µM)
SMILES: O=C(N/N=C/c1cc(Br)cc(Br)c1O)c1cc[nH]n1

MIC80 (Cryptococcus neoformans [2]): > 16 µg/mL
SMILES: O=C(N/N=C/c1c(O)ccc2ccccc12)c1cc(Br)c[nH]1

MIC80 (Cryptococcus neoformans [2]): 4 µg/mL (≈ 12.9 µM)
SMILES: O=C(N/N=C/c1cc(Br)ccc1O)c1cc[nH]n1

MIC80 (Cryptococcus neoformans [2]): > 16 µg/mL
SMILES: O=C(N/N=C/c1c(O)ccc2ccccc12)c1cc[nH]c1

MIC80 (Cryptococcus neoformans [2]): > 16 µg/mL
SMILES: O=C(N/N=C/c1cc(Br)ccc1O)c1nc2cc(Br)ccc2[nH]1

MIC80 (Cryptococcus neoformans [2]): 2 µg/mL (≈ 6.47 µM)
SMILES: O=C(N/N=C/c1ccc(Br)cc1O)c1ccco1

MIC80 (Cryptococcus neoformans [2]): 4 µg/mL (≈ 14.3 µM)
SMILES: O=C(N/N=C/c1c(O)ccc2ccccc12)c1cc[nH]n1

SMILES: O=C(N/N=C/c1ccc(Br)cc1O)c1ccc(C(F)(F)F)s1
CC50 [1]: 0.5 µg/mL (≈ 1.27 µM) | MIC80 (Cryptococcus neoformans [2]): 0.06 µg/mL (≈ 0.153 µM) | selectivity ratio [3]: 8.3 | MFC100 (Cryptococcus neoformans [4]): 0.5 µg/mL (≈ 1.27 µM)

MIC80 (Cryptococcus neoformans [2]): 2 µg/mL (≈ 6.47 µM)
SMILES: O=C(N/N=C/c1cc(Br)ccc1O)c1ccco1

MIC80 (Cryptococcus neoformans [2]): 4 µg/mL (≈ 9.9 µM)
SMILES: O=C(N/N=C/c1cc(Br)cc(Br)c1O)c1cccs1

MIC80 (Cryptococcus neoformans [2]): 4 µg/mL (≈ 12.3 µM)
SMILES: O=C(N/N=C/c1ccc(Br)cc1O)c1cccs1

MIC80 (Cryptococcus neoformans [2]): 8 µg/mL (≈ 20.6 µM)
SMILES: O=C(N/N=C/c1cc(Br)cc(Br)c1O)c1ccco1

MIC80 (Cryptococcus neoformans [2]): 2 µg/mL (≈ 6.49 µM)
SMILES: O=C(N/N=C/c1ccc(Br)cc1O)c1ccc[nH]1

SMILES: O=C(N/N=C/c1cc(Br)ccc1O)c1cc(Br)co1
CC50 [1]: 16 µg/mL (≈ 41.2 µM) | MIC80 (Cryptococcus neoformans [2]): 0.25 µg/mL (≈ 0.644 µM) | Activity (Cryptococcus neoformans [6]): Active | selectivity ratio [3]: 64

MIC80 (Cryptococcus neoformans [2]): 2 µg/mL (≈ 6.47 µM)
SMILES: O=C(N/N=C/c1ccc(Br)cc1O)c1cc[nH]n1

MIC80 (Cryptococcus neoformans [2]): > 16 µg/mL
SMILES: O=C(N/N=C/c1c(O)ccc2ccccc12)c1ccco1
